Experiments:
PASK [1] = biological target: PASK (Homo sapiens (Human), UniProt Q96RG2); experiment: PAS Kinase FRET Assay; type: biochemical; conditions: TR-FRET assay; read-out: IC50 Kinase Domain
Method in brief: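 TR-FRET read-out (665/615 nm) of ULight-peptide phosphorylation by PASK, detected with Eu-labelled anti-phospho antibody. Compound, kinase and substrate/ATP reacted 2 h at 25 °C in the dark in 50 mM HEPES, 10 mM MgCl2, 1 mM EGTA, 0.01% Tween-20, 2 mM DTT. Eleven-point dilution series made at 4× final.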

PASK [2] = biological target: PASK (UniProt #Q96RG2; residues 879-1323) (Homo sapiens (Human), UniProt Q96RG2); experiment: PASK ATP Radiochemical Assay; type: biochemical; conditions: 33P-ATP radiochemical assay; read-out: IC50 Kinase Domain
Procedure: PASK ATP Radiochemical Assay Purified PASK (UniProt #Q96RG2; human recombinant N-terminal GST tagged construct, residues 879-1323) from insect cells (final concentration 5 nM) is added to freshly prepared Base Reaction Buffer containing 20 mM HEPES (pH 7.5), 10 mM MgCl2, 1 mM EGTA, 0.02% Brij35, 0.02 mg/ml BSA, 0.1 mM Na3VO4, 2 mM DTT, 1% DMSO and Myelin Basic Protein (20 μM final). Test compounds in DMSO are then added and the mixture, followed by delivery of ^33P-ATP (specific activity 0.01 μCi/μl final) to initiate the reaction. The kinase reaction is incubated for 120 min at room temperature. The entire reaction mixture is washed through onto a P81 Phosphocellulose paper and washed three times for 10 minutes in 75 mM phosphoric acid and once in methanol prior to drying and scintillation counting.

CK2a2 = CK2a2 (Homo sapiens (Human), UniProt P19784); experiment: Biochemical Assay for CK2 Activity; conditions: 33P-ATP radiochemical assay; read-out: IC50 CK2 a2
Procedure: Biochemical Assay for CK2 Activity
Purified CK2a2 (NP_001887; human full-length protein, GST tagged) from insect cells (final concentration 1.2 nM) is added to freshly prepared Base Reaction Buffer containing 20 mM Hepes (pH 7.5), 10 mM MgCl2, 1 mM EGTA, 0.02% Brij35, 0.02 mg/ml BSA, 0.1 mM Na3VO4, 2 mM DTT, 1% DMSO and CK2 sub [RRRDDDSDDD] (20 μM final). Test compounds in DMSO are then added and the mixture, followed by delivery of ^33P-ATP (specific activity 0.01 μCi/μl final) to initiate the reaction. The kinase reaction is incubated for 120 min at room temperature. The entire reaction mixture is washed through onto a P81 Phosphocellulose paper and washed three times for 10 minutes in 75 mM phosphoric acid and once in methanol prior to drying and scintillation counting.

Chain of PASK (UniProt #Q96RG2; residues 879-1323) (Homo sapiens (Human), UniProt Q96RG2) (Q96RG2 879-1323): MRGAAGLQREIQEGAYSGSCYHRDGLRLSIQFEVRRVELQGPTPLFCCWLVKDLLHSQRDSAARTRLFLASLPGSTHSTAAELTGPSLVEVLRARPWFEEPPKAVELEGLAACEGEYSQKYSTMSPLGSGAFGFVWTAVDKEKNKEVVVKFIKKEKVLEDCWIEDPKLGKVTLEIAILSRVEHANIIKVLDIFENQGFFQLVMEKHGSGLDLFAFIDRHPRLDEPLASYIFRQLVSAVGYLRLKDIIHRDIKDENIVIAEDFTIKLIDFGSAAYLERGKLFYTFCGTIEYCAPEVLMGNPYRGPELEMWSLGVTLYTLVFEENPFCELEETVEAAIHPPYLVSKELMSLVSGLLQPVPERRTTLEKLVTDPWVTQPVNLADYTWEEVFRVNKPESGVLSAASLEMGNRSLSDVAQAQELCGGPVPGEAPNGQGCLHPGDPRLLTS
Chain of PASK (Homo sapiens (Human), UniProt Q96RG2) (Q96RG2 999-1251): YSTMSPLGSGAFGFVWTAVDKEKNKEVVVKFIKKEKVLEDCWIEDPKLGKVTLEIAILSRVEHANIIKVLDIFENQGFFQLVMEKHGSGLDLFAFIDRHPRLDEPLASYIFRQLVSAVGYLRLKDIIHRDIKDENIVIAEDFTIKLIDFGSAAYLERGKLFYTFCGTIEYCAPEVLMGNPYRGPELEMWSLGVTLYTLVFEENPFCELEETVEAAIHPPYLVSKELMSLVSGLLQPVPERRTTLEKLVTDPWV
Chain of CK2a2 (P19784 whole entry): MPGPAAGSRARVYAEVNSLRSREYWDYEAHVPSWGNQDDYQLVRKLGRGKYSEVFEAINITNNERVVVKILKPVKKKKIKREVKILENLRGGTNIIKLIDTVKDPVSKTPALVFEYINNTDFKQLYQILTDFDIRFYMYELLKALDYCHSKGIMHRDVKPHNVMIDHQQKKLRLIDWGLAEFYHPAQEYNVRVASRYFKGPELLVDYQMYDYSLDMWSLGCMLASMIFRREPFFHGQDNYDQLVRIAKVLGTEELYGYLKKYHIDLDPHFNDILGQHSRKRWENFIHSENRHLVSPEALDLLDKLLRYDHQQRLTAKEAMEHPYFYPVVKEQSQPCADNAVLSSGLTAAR

IC50 (PASK [1]) [µM]	IC50 (PASK [2]) [µM]	IC50 (CK2a2) [µM]	SMILES
≤ 10	≤ 10	≤ 10	O=c1cc(-c2ccc3c(c2)OCCO3)[nH]c2c(-c3ccc(N4CCCC4)nc3)cnn12 [Example 119, 5-(2,3-Dihydrobenzo[b][1,4]dioxin-6-yl)-3-(6-(pyrrolidin-1-yl)pyridin-3-yl)pyrazolo[1,5-a]pyrimidin-7(4H)-one]
≤ 10	≤ 10	≤ 10	COc1ccc2c(c1)CCc1c-2[nH]c2c(-c3ccccn3)cnn2c1=O [Example 121, 3-Methoxy-11-(pyridin-2-yl)-5,6-dihydrobenzo[h]pyrazolo[5,1-b]quinazolin-7(12H)-one]
≤ 10	≤ 10	≥ 10	COc1ccc(-c2cc(=O)n3nc(O)c(-c4ccccn4)c3[nH]2)c(OC)c1 [Example 122, 5-(2,4-Dimethoxyphenyl)-2-hydroxy-3(pyridin-2-yl)pyrazolo[1,5-a]pyrimidin-7(4H)-one]
≤ 10	≤ 10	≥ 10	O=c1cc(-c2ccc(Cl)cc2)[nH]c2c(-c3ccccn3)c(O)nn12 [Example 123, 5-(4-Chlorophenyl)-2-hydroxy-3-(pyridin-2-yl)pyrazolo[1,5-a]pyrimidin-7(4H)-one]
≤ 10	≤ 10	≤ 10	O=c1cc(-c2ccc(F)cc2)[nH]c2c(-c3ccccn3)cnn12 [Example 125, 5-(4-Fluorophenyl)-3-(pyridin-2-yl)pyrazolo[1,5-a]pyrimidin-7(4H)-one]
≤ 10	≤ 10	≤ 10	O=c1cc(-c2ccc(Cl)c(Cl)c2)[nH]c2c(-c3ccccn3)cnn12 [Example 126, 5-(3,4-Dichlorophenyl)-3-(pyridin-2-yl)pyrazolo[1,5-a]pyrimidin-7(4H)-one]
≤ 10	≤ 10	≤ 10	O=c1cc(-c2ccc3occc3c2)[nH]c2c(-c3ccccc3)c(O)nn12 [Example 127, 5-(Benzofuran-5-yl)-2-hydroxy-3-phenylpyrazolo[1,5-a]pyrimidin-7(4H)-one]
≤ 10	≤ 10	≥ 10	O=c1cc(-c2ccc(Cl)cc2)[nH]c2c(-c3cccnc3)c(O)nn12 [Example 128, 5-(4-Chlorophenyl)-2-hydroxy-3-(pyridin-3-yl)pyrazolo[1,5-a]pyrimidin-7(4H)-one]
≤ 10	≤ 10	≥ 10	O=c1cc(-c2ccc3c(c2)CCO3)[nH]c2c(-c3ccccn3)c(O)nn12 [Example 129, 5-(2,3-Dihydrobenzofuran-5-yl)-2-hydroxy-3-(pyridin-2-yl)pyrazolo[1,5-a]pyrimidin-7(4H)-one]
≤ 10	≤ 10	≤ 10	O=c1cc(-c2ccc3c(c2)CCO3)[nH]c2c(-c3cccnc3)c(O)nn12 [Example 130, 5-(2,3-Dihydrobenzofuran-5-yl)-2-hydroxy-3-(pyridin-3-yl)pyrazolo[1,5-a]pyrimidin-7(4H)-one]
≤ 10	≤ 10	≤ 10	O=c1cc(-c2ccc3occc3c2)[nH]c2c(-c3ccccn3)c(O)nn12 [Example 131, 5-(Benzofuran-5-yl)-2-hydroxy-3-(pyridin-2-yl)pyrazolo[1,5-a]pyrimidin-7(4H)-one]
≤ 10	≤ 10	≤ 10	O=c1cc(-c2ccc3c(c2)OCO3)[nH]c2c(Cc3ccccc3)cnn12 [Example 133, 5-(Benzo[d][1,3]dioxol-5-yl)-3-benzylpyrazolo[1,5-a]pyrimidin-7(4H)-one]
≤ 10	≤ 10	≤ 10	COc1ccccc1-c1cc(=O)n2ncc(-c3ccccn3)c2[nH]1 [Example 135, 5-(2-Methoxyphenyl)-3-(pyridin-2-yl)pyrazolo[1,5-a]pyrimidin-7(4H)-one]
≤ 10	≤ 10	≥ 10	O=c1cc(-c2ccc(F)cc2)[nH]c2c(-c3ccccn3)c(O)nn12 [Example 137, 5-(4-Fluorophenyl)-2-hydroxy-3-(pyridin-2-yl)pyrazolo[1,5-a]pyrimidin-7(4H)-one]
≤ 10	≤ 10	≤ 10	Nc1nn2c(=O)cc(-c3ccc(Cl)cc3)[nH]c2c1-c1ccccc1 [Example 141, 2-Amino-5-(4-chlorophenyl)-3-phenylpyrazolo[1,5-a]pyrimidin-7(4H)-one]
≤ 10	≤ 10	≤ 10	Nc1nn2c(=O)cc(-c3ccc4c(c3)OCCO4)[nH]c2c1-c1ccccc1 [Example 142, 2-Amino-5-(2,3-dihydrobenzo[b][1,4]dioxin-6-yl)-3-phenylpyrazolo[1,5-a]pyrimidin-7(4H)-one]
≤ 10	≤ 10	≤ 10	CN(Cc1ccccc1)C(=O)c1cnn2c(=O)cc(-c3ccc4c(c3)OCCO4)[nH]c12 [Example 143, N-Benzyl-5-(2,3-dihydrobenzo[b][1,4]dioxin-6-yl)-N-methyl-7-oxo-4,7-dihydropyrazolo[1,5-a]pyrimidine-3-carboxamide]
≤ 10	≤ 10	≤ 10	O=C(NCc1ccccc1)c1cnn2c(=O)cc(-c3ccc(Cl)cc3)[nH]c12 [Example 144, N-Benzyl-5-(4-chlorophenyl)-7-oxo-4,7-dihydropyrazolo[1,5-a]pyrimidine-3-carboxamide]
≤ 10	≤ 10	≤ 10	CCCNC(=O)c1cnn2c(=O)cc(-c3ccc4c(c3)OCCO4)[nH]c12 [Example 145, 5-(2,3-Dihydrobenzo[b][1,4]dioxin-6-yl)-7-oxo-N-propyl-4,7-dihydropyrazolo[1,5-a]pyrimidine-3-carboxamide]
≤ 10	≤ 10	≤ 10	O=c1cc(-c2ccc3occc3c2)[nH]c2c(-c3cccnc3)c(O)nn12 [Example 147, 5-(Benzofuran-5-yl)-2-hydroxy-3-(pyridin-3-yl)pyrazolo[1,5-a]pyrimidin-7(4H)-one]
≤ 10	≤ 10	≤ 10	Nc1nn2c(=O)cc(-c3ccc4c(c3)OCCO4)[nH]c2c1-c1ccccn1 [Example 148, 2-Amino-5-(2,3-dihydrobenzo[b][1,4]dioxin-6-yl)-3-(pyridin-2-yl)pyrazolo[1,5-a]pyrimidin-7(4H)-one]
≤ 10	≤ 10	≤ 10	Nc1nn2c(=O)cc(-c3ccc4c(c3)OCO4)[nH]c2c1-c1ccccn1 [Example 150, 2-Amino-5-(benzo[d][1,3]dioxol-5-yl)-3-(pyridin-2-yl)pyrazolo[1,5-a]pyrimidin-7(4H)-one]
≤ 10	≤ 10	≤ 10	Nc1nn2c(=O)cc(-c3ccc(Cl)cc3)[nH]c2c1-c1ccccn1 [Example 152, 2-Amino-5-(4-chlorophenyl)-3-(pyridin-2-yl)pyrazolo[1,5-a]pyrimidin-7(4H)-one]
≤ 10	≤ 10	≤ 10	CC(=O)Nc1nn2c(=O)cc(-c3ccc4c(c3)OCO4)[nH]c2c1-c1ccccn1 [Example 155, N-(5-(Benzo[d][1,3]dioxol-5-yl)-7-oxo-3-(pyridin-2-yl)-4,7-dihydropyrazolo[1,5-a]pyrimidin-2-yl)acetamide]
≤ 10	≤ 10	≤ 10	CCNc1nn2c(=O)cc(-c3ccc4c(c3)OCO4)[nH]c2c1-c1ccccn1 [Example 156, 5-(Benzo[d][1,3]dioxol-5-yl)-2-(ethylamino)-3-(pyridin-2-yl)pyrazolo[1,5-a]pyrimidin-7(4H)-one]
≤ 10	≤ 10	≤ 10	O=c1cc(-c2ccc3c(c2)OC(F)(F)O3)[nH]c2c(-c3ccccn3)cnn12 [Example 158, 5-(2,2-Difluorobenzo[d][1,3]dioxol-5-yl)-3-(pyridin-2-yl)pyrazolo[1,5-a]pyrimidin-7(4H)-one]
≤ 10	≤ 10	≤ 10	Nc1nn2c(=O)cc(-c3ccc4[nH]ncc4c3)[nH]c2c1-c1ccccn1 [Example 159, 2-Amino-5-(1H-indazol-5-yl)-3-(pyridin-2-yl)pyrazolo[1,5-a]pyrimidin-7(4H)-one]
≤ 10	≤ 10	≤ 10	O=c1cc(-c2ccc3[nH]ncc3c2)[nH]c2c(-c3ccccn3)cnn12 [Example 160, 5-(1H-Indazol-5-yl)-3-(pyridin-2-yl)pyrazolo[1,5-a]pyrimidin-7(4H)-one]
